Experimental data as given in patent publication US11274093B2, “Fused bicyclic benzoheteroaromatic compounds and methods of use thereof” (Araxes Pharma LLC, priority 2017, dated 2022).

target: T1, KRAS G12C 1-169, his-tagged protein, GDP-loaded (Homo sapiens, UniProt P01116, G12C); assay: Biochemical assay: covalent binding to KRAS G12C measured by mass spectrometry; conditions: covalently bind to KRAS G12C, after a thirty minute incubation period
T1 construct: KRAS G12C 1-169, his-tagged protein, GDP-loaded
Experimental: Test compounds were prepared as 10 mM stock solutions in DMSO (Fisher cat #BP-231-100). KRAS G12C 1-169, his-tagged protein, GDP-loaded was diluted to 0.5 μM in buffer (20 mM Hepes, 150 mM NaCl, 1 mM MgCl2). Compounds were tested for activity as follows:
Compounds were diluted to 50× final test concentration in DMSO in 96-well storage plates. Compound stock solutions were vortexed before use and observed carefully for any sign of precipitation. Dilutions were as follow: • For 100 μM final compound concentration, compounds were diluted to 5000 μM (5 μL 10 mM compound stock+5 μL DMSO and mixed well by pipetting. • For 30 μM final compound concentration, compounds were diluted to 1500 μM (3 μL 10 mM compound stock+17 μL DMSO) and mixed well by pipetting. • For 10 μM final compound concentration, compounds were diluted to 500 μM (2 μL 10 mM compound stock+38 μL DMSO) and mixed well by pipetting. 49 μL of the stock protein solution was added to each well of a 96-well PCR plate (Fisher cat #1423027). 1 μl of the diluted 50× compounds were added to appropriate wells in the PCR plate using 12-channel pipettor. Reactions were mixed carefully and thoroughly by pipetting up/down with a 200 μL multi-channel pipettor. The plate was sealed well with aluminum plate seal, and stored in drawer at room temperature for 10 minutes, 30 minutes, 2 hours or 24 hours. 5 μL of 2% formic acid (Fisher cat #A117) in de-ionized H2O was then added to each well followed by mixing with a pipette. The plate was then resealed with aluminum seal and stored on dry ice until analyzed as described below.
The above described assays were analyzed by mass spectrometry according to one of the following two procedures:
The MS instrument is set to positive polarity, 2 GHz resolution, and low mass (1700) mode and allowed to equilibrate for 30 minutes. The instrument is then calibrated, switched to acquisition mode and the appropriate method loaded.
After another 30 minute equilibration time, a blank batch (i.e., buffer) is run to ensure equipment is operating properly. The samples are thawed at 37° C. for 10 minutes, briefly centrifuged, and transfer to the bench top. Wells A1 and H12 are spiked with 1 μL 500 μM internal standard peptide, and the plates centrifuged at 2000×g for 5 minutes. The method is then run and masses of each individual well recorded.
The masses (for which integration data is desired) for each well are pasted into the platemap and exported from the analysis. Masses for the internal standards are exported as well. The data at 50 ppm is extracted for the +19 charge state, and identity of well A1 is assigned using the internal standard spike and integrated. Peak data is exported as a TOF list and the above steps are repeated individually, for the +20, 21, 22, 23, 24, and 25 charge states.
The masses and peak intensities of KRAS G12C protein species were measured using a Dionex RSLCnano system (Thermo Scientific) connected to a Q Exactive Plus mass spectrometer (Thermo Scientific).
[…] of sample was each loaded onto a Aeris™ […] WIDEPORE C4 200 Å, LC Column 50×2.1 mm column maintained at 40° C. at a flow rate of 600 μL/min with […] (0.1% formic acid in acetonitrile). The liquid chromatography conditions were 20% solvent B for 1 minute, 20% to 60% solvent B for 1.5 minutes, 60% to 90% solvent for 0.5 minute, 90% solvent B for 0.2 minute, 90% to 20% solvent B for 0.2 minute, and then equilibrated for 1.6 minute before the following sample injection. The flow rate was maintained at 600 μL/min throughout the sample analysis.
The mass spectrometer was operated in profile mode at a resolution of 17500, 5 microscans, using 50 msec max injection time and an AGC target of 1×10^6, and a full mass range from 800-1850 m/z was recorded. The HCD trapping gas was optimized for maximum sensitivity for intact proteins. […]

| SMILES | Binding % |
| --- | --- |
| C=CC(=O)N1CCC(Nc2cnnc3c(-c4c(C)ccc5[nH]ncc45)cccc23)C1 (centres unmarked) [Compound 23, 1-(3-((8-(5-methyl-1H-indazol-4-yl)cinnolin-4-yl)amino)pyrrolidin-1-yl)prop-2-en-1-one] | + (+ indicates binding activity up to 5%) |
| C=CC(=O)N1CC(Nc2cncc3c(-c4cc(O)cc5ccccc45)cccc23)C1 [Compound 25, 1-(3-((8-(3-hydroxynaphthalen-1-yl)isoquinolin-4-yl)amino)azetidin-1-yl)prop-2-en-1-one] | ++ (++ indicates binding activity of 5% or more) |
| C=CC(=O)N1CCN(c2cnnc3c(-c4c(C)ccc5[nH]ncc45)cccc23)CC1 [Compound 19, 1-(4-(8-(5-methyl-1H-indazol-4-yl)cinnolin-4-yl)piperazin-1-yl)prop-2-en-1-one] | + (+ indicates binding activity up to 5%) |
| C=CC(=O)N1CC(Nc2cncc3c(-c4c(C)ccc5[nH]ncc45)cccc23)C1 [Compound 26, 1-(3-((8-(5-methyl-1H-indazol-4-yl)isoquinolin-4-yl)amino)azetidin-1-yl)prop-2-en-1-one] | ++ (++ indicates binding activity of 5% or more) |
| C=CC(=O)N1CCN(c2cnnc3c(-c4cc(O)cc5ccccc45)cccc23)CC1 [Compound 20, 1-(4-(8-(3-hydroxynaphthalen-1-yl)cinnolin-4-yl)piperazin-1-yl)prop-2-en-1-one] | ++ (++ indicates binding activity of 5% or more) |
| C=CC(=O)N1CC(Nc2cnnc3c(-c4cc(O)cc5ccccc45)cccc23)C1 [Compound 18, 1-(3-((8-(3-hydroxynaphthalen-1-yl)cinnolin-4-yl)amino)azetidin-1-yl)prop-2-en-1-one] | ++ (++ indicates binding activity of 5% or more) |
| C=CC(=O)N1CC(Nc2cncc3c(-c4cc(O)cc5ccccc45)ccnc23)C1 [Compound 24, 1-(3-((4-(3-hydroxynaphthalen-1-yl)-1,6-naphthyridin-8-yl)amino)azetidin-1-yl)prop-2-en-1-one] | ++ (++ indicates binding activity of 5% or more) |
| C=CC(=O)N1CC(Nc2ncnc3c(-c4cc(O)cc5ccccc45)cccc23)C1 [Compound 2, 1-(3-((8-(3-hydroxynaphthalen-1-yl)quinazolin-4-yl)amino)azetidin-1-yl)prop-2-en-1-one] | ++ (++ indicates binding activity of 5% or more) |
| C=CC(=O)N1CCCC(Nc2cnnc3c(-c4c(C)ccc5[nH]ncc45)cccc23)C1 (centres unmarked) [Compound 21, 1-(3-((8-(5-methyl-1H-indazol-4-yl)cinnolin-4-yl)amino)piperidin-1-yl)prop-2-en-1-one] | + (+ indicates binding activity up to 5%) |
| C=CC(=O)N1CC(Nc2ncnc3c(-c4c(C)ccc5[nH]ncc45)cccc23)C1 [Compound 1, 1-(3-((8-(5-methyl-1H-indazol-4-yl)quinazolin-4-yl)amino)azetidin-1-yl)prop-2-en-1-one] | + (+ indicates binding activity up to 5%) |
| C=CC(=O)N1CCC(Nc2cnnc3c(-c4cc(O)cc5ccccc45)cccc23)C1 (centres unmarked) [Compound 22] | + (+ indicates binding activity up to 5%) |
